Target: T1, NrpR (Methanococcus maripaludis, UniProt Q6LZL7)
T1 sequence (Q6LZL7 1-536): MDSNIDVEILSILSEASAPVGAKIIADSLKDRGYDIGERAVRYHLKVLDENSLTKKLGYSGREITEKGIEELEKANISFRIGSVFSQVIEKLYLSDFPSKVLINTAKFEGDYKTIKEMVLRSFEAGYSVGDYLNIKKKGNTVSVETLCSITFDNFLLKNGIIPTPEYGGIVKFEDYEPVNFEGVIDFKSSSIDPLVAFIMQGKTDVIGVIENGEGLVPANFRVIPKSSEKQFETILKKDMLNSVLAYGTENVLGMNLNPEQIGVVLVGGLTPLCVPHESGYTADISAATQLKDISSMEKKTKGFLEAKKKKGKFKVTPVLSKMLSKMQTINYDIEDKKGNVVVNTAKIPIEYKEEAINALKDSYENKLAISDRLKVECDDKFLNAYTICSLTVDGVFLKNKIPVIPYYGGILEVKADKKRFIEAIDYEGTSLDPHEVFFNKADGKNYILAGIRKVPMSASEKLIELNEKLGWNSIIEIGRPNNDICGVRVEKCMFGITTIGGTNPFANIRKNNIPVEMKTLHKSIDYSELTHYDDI
Assay: EMSA, inhibition of NrpR binding to […]-labelled glnK1 operator DNA
Details: inducer ligand; wild type glnK1 operator region O1+O2; 0.1 and 0.4 mM 2OG

SMILES: O=C(O)CCC(=O)C(=O)O [2-oxoglutarate]
- EMSA, inhibition of NrpR binding to 32P-labelled glnK1 operator DNA: 2OG indicates the nitrogen state of the cell and is the inducer ligand

— publication PMC3104677 (Molecular microbiology, 2009)
